Data reported in ChEMBL document CHEMBL1159241, “Dihydrolicoisoflavone, a new isoflavanone from Swartzia polyphylla” (J Nat Prod, 1995).

Experiment: Inhibition of protein kinase C

COc1ccc(-c2coc3cc(O)cc(O)c3c2=O)cc1 [BIOCHANIN]
IC50: < 50 µg/mL
